Data from patent US20140357579A1, “SYNTHETIC PEPTIDE AMIDES AND DIMERS THEREOF” (priority 2006, published 2014).
Like-named read-outs stand apart in the source and are kept apart here. Square brackets hold non-standard residues; d marks the D form. Side chains are listed from the residue outwards. Peptide text beside a SMILES is read from it. dOrn = NCCC[C@@H](N)C(=O)O

Columns and labels:
Format in all cases: cell-based
[1] = molecular target: T1, human kappa opioid receptor (hKOR) (Homo sapiens, UniProt P41145); experiment: NFAT-luciferase reporter assay in HEK-293 cells transfected with human kappa opioid receptor and chimeric G-protein; conditions: for EC50: transfected HEK-293 cells, luciferase reporter
T1 construct: expressed in transfected cells; host or cells: HEK-293 cells (ATCC), transient transfection with pcDNA3-hOPRK1
T1 sequence (P41145 whole entry): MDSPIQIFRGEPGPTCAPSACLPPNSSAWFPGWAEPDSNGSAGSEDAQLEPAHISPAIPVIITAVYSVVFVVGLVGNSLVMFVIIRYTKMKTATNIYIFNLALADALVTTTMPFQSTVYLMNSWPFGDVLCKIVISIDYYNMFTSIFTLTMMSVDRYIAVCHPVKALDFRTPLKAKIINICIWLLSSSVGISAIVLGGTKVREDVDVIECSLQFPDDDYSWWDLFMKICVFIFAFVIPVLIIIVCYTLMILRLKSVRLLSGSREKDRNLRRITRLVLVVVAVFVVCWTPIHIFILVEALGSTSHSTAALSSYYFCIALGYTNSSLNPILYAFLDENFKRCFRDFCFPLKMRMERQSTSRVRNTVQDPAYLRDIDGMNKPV

[2] = molecular target: T2, mouse kappa opioid receptor (mKOR) (Mus musculus, UniProt P33534); experiment: Inhibition of forskolin-stimulated cAMP production in R1.G1 cells (TR-FRET cAMP immunoassay); conditions: for EC50: inhibition of forskolin-stimulated cAMP
T2 construct: a mouse thymoma cell line that expresses only the kappa-opioid receptor and no other opioid receptor subtype; host or cells: R1.G1 mouse thymoma cells
T2 sequence (P33534 whole entry): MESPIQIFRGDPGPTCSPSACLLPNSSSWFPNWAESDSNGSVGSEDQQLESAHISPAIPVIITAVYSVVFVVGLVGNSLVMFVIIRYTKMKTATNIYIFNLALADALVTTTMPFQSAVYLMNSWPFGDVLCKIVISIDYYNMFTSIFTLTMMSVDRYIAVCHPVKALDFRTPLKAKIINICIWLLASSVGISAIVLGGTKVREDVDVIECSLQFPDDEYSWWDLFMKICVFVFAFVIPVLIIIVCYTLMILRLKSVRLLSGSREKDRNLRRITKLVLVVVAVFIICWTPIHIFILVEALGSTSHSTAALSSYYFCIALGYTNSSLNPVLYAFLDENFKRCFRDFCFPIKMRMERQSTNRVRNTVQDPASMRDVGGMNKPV

[3] = molecular target: human mu opioid receptor (Homo sapiens, UniProt P35372); experiment: Similar assay for potency on the human mu opioid receptor
human mu opioid receptor, sequence (P35372 whole entry): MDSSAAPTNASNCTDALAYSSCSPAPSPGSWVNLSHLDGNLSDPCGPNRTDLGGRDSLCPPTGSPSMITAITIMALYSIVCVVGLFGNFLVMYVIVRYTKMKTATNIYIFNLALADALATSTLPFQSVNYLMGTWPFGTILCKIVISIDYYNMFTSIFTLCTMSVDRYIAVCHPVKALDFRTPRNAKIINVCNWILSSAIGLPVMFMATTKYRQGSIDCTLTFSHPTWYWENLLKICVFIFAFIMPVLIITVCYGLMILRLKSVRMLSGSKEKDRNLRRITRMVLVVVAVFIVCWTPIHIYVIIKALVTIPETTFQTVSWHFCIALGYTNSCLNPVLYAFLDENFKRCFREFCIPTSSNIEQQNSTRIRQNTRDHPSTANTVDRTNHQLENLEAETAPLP
Description: Synthetic peptide amides of the invention were tested in a similar assay for potency on the human mu opioid receptor.
The synthetic peptide amide (53) was tested in a similar assay for potency on the human mu opioid receptor.

[4] = HEK293, percent maximal activation compared to full induction by known kappa agonists, read-out: hKOR Efficacy(%)
[5] = percent maximal activation compared to full induction by known kappa agonists
[6] = R1.G1 cells, read-out: mKOR Efficacy(%)
[7] = HEK293, read-out: hKOR Efficacy(%), percent maximal activation compared to full induction by known kappa agonists
[8] = read-out: mKOR Efficacy(%), R1.G1 cells
[9] = R1.G1 cells, read-out: mKOR EC50

| SMILES | Emax [1, 4] | mKOR Efficacy(%) ([2]; R1.G1 cells) | hKOR Efficacy(%) [1, 5] | also measured |
| --- | --- | --- | --- | --- |
| CCN1CCCN(C(=O)[C@@H](CCCN)NC(=O)[C@@H](CC(C)C)NC(=O)[C@@H](Cc2ccccc2)NC(=O)[C@H](N)Cc2ccccc2)CC1 [Compound 18, D-Phe-D-Phe-D-Leu-D-Orn-[4-ethylhomopiperazine amide]] | 99% | 99% | – | – |
| CNC(=N)N1CCCN(C(=O)[C@@H](CCCN)NC(=O)[C@@H](CC(C)C)NC(=O)[C@@H](Cc2ccccc2)NC(=O)[C@H](N)Cc2ccccc2)CC1 [Compound 19, D-Phe-D-Phe-D-Leu-D-Orn-[4-(N-methyl)amidinohomopiperazine amide]] | 93% | 101% | – | EC50 ([1]; read-out: hKOR EC50): 0.21 nM |
| CC(C)C[C@@H](NC(=O)[C@@H](Cc1ccccc1)NC(=O)[C@H](N)Cc1ccccc1)C(=O)N[C@H](CCCNC(C)C)C(=O)N1CCC(N)(C(=O)O)CC1 [Compound 20, D-Phe-D-Phe-D-Leu-(δ-iPr)D-Orn-[omega(4-Aminopiperidine-4-carboxylic acid)]-OH] | 97% | 92% | – | EC50 ([1]; read-out: hKOR EC50): 0.15 nM |
| CC(C)C[C@@H](NC(=O)[C@@H](Cc1ccccc1)NC(=O)[C@H](N)Cc1ccccc1)C(=O)N[C@H](CCCCN)C(=O)NCC1OCCO1 [Compound 25] | – | 85% | 98% | – |
| CC(C)C[C@@H](NC(=O)[C@@H](Cc1ccccc1)NC(=O)[C@H](N)Cc1ccccc1)C(=O)N[C@H](CCCCN)C(=O)N1CCN(c2ncccn2)CC1 [Compound 26, D-Phe-D-Phe-D-Leu-D-Lys-[2-(piperazin-1-yl)pyrimidine amide]] | – | 78% | 98% | – |
| CC(C)C[C@@H](NC(=O)[C@@H](Cc1ccccc1)NC(=O)[C@H](N)Cc1ccccc1)C(=O)N[C@H](CCCCN)C(=O)N1CCN(c2cnccn2)CC1 [Compound 27, D-Phe-D-Phe-D-Leu-D-Lys-[2-(piperazin-1-yl)pyrazine amide]] | – | 85% | 100% | – |
| CC(C)C[C@@H](NC(=O)[C@@H](Cc1ccccc1)NC(=O)[C@H](N)Cc1ccccc1)C(=O)N[C@H](CCCCN)C(=O)N1CCN(c2ccccn2)CC1 [Compound 28, D-Phe-D-Phe-D-Leu-D-Lys-[1-(pyridin-2-yl)piperazine amide]] | – | 89% | 100% | – |
| CC(C)C[C@@H](NC(=O)[C@@H](Cc1ccccc1)NC(=O)[C@H](N)Cc1ccccc1)C(=O)N[C@H](CCCCN)C(=O)N1CCN(c2nccs2)CC1 [Compound 29, D-Phe-D-Phe-D-Leu-D-Lys-[2-(piperazin-1-yl)thiazole amide]] | – | 85% | 92% | – |
| CC(C)C[C@@H](NC(=O)[C@@H](Cc1ccccc1)NC(=O)[C@H](N)Cc1ccccc1)C(=O)N[C@H](CCCCN)C(=O)N1CCN(S(=O)(=O)N(C)C)CC1 [Compound 30, D-Phe-D-Phe-D-Leu-D-Lys-[N,N-dimethylpiperazine-1-sulfonamide amide]] | – | 86% | 101% | – |
| CC(C)C[C@@H](NC(=O)[C@@H](Cc1ccccc1)NC(=O)[C@H](N)Cc1ccccc1)C(=O)N[C@H](CCCCN)C(=O)N1CCN(S(C)(=O)=O)CC1 [Compound 31, D-Phe-D-Phe-D-Leu-D-Lys-[1-(methylsulfonyl)piperazine amide]] | – | 82% | 100% | – |
| CC(C)C[C@@H](NC(=O)[C@@H](Cc1ccccc1)NC(=O)[C@H](N)Cc1ccccc1)C(=O)N[C@H](CCCCN)C(=O)N1CCN(S(=O)(=O)c2ccccc2)CC1 [Compound 32, D-Phe-D-Phe-D-Leu-D-Lys-[1-(phenylsulfonyl)piperazine amide]] | – | 87% | 101% | – |
| CC(C)C[C@@H](NC(=O)[C@@H](Cc1ccccc1)NC(=O)[C@H](N)Cc1ccccc1)C(=O)N[C@H](CCCCN)C(=O)N1CCN(C(=O)c2ccccc2)CC1 [Compound 33, D-Phe-D-Phe-D-Leu-D-Lys-[phenyl(piperazin-1-yl)methanone amide]] | – | 92% | 94% | – |
| CC(C)C[C@@H](NC(=O)[C@@H](Cc1ccccc1)NC(=O)[C@H](N)Cc1ccccc1)C(=O)N[C@H](CCCCN)C(=O)N1CCS(=O)(=O)CC1 [Compound 34, D-Phe-D-Phe-D-Leu-D-Lys-[thiolmorpholine-1,1-dioxide amide]] | – | 89% | 103% | – |
| CC(C)C[C@@H](NC(=O)[C@@H](Cc1ccccc1)NC(=O)[C@H](N)Cc1ccccc1)C(=O)N[C@H](CCCCN)C(=O)NCc1ccc(C(F)(F)F)nc1 [Compound 35, D-Phe-D-Phe-D-Leu-D-Lys-[6-trifluoromethyl-3-aminomethylpyridine amide]] | – | 85% | 95% | – |
| CC(C)C[C@@H](NC(=O)[C@@H](Cc1ccccc1)NC(=O)[C@H](N)Cc1ccccc1)C(=O)N[C@H](CCCCN)C(=O)NCc1ccc2[nH]c(=O)[nH]c2c1 [Compound 37, D-Phe-D-Phe-D-Leu-D-Lys-[5-(aminomethyl)-1H-benzo[d]imidazol-2(3H)-one amide]] | – | 87% | 99% | – |
| Cc1cnc(CNC(=O)[C@@H](CCCCN)NC(=O)[C@@H](CC(C)C)NC(=O)[C@@H](Cc2ccccc2)NC(=O)[C@H](N)Cc2ccccc2)cn1 [Compound 38] | 100% | – | – | Emax [2, 6]: 87% |
| CC(C)C[C@@H](NC(=O)[C@H](N)Cc1ccccc1)C(=O)N[C@H](CCCN)C(=O)N[C@@H](CCCCNC(=O)[C@@H](CCCN)NC(=O)[C@@H](CC(C)C)NC(=O)[C@@H](Cc1ccccc1)NC(=O)[C@H](N)Cc1ccccc1)C(=O)O [Compound 40] | – | – | – | Emax [1, 7]: 83%; EC50 ([1]; hKOR EC50 (nM)): 0.26 nM; Emax [2, 8]: 96% |
| CC(C)C[C@@H](NC(=O)[C@H](N)Cc1ccccc1)C(=O)N[C@H](CCCN)C(=O)N[C@@H](CCCCNC(=O)[C@@H](CCCN)NC(=O)[C@@H](CC(C)C)NC(=O)[C@@H](Cc1ccccc1)NC(=O)[C@H](N)Cc1ccccc1)C(=O)O [Compound 41] | – | 100% | 89% | EC50 ([1]; hKOR EC50 (nM)): 0.2 nM |
| CC(C)C[C@@H](NC(=O)[C@@H](Cc1ccccc1)NC(=O)[C@H](N)Cc1ccccc1)C(=O)N[C@H](CCCN)C(=O)NCCCC[C@H](NC(=O)[C@H](N)CCCN)C(=O)O [Compound 42] | 95% | – | – | EC50 ([1]; read-out: hKOR EC50): 0.27 nM; EC50 [2, 9]: 0.24 nM; Emax [2, 6]: 97% |
| CC(C)C[C@@H](NC(=O)[C@@H](Cc1ccccc1)NC(=O)[C@H](N)Cc1ccccc1)C(=O)N[C@H](CCCN)C(=O)NCCCC[C@H](NC(=O)[C@@H](CCCN)NC(=O)[C@@H](CC(C)C)NC(=O)[C@@H](Cc1ccccc1)NC(=O)[C@H](N)Cc1ccccc1)C(N)=O [Compound 43] (H-[dF][dF][dL][dOrn]K([dOrn-dL-dF-dF])-NH2) | – | – | – | Emax [1, 7]: 94%; EC50 ([1]; hKOR EC50 (nM)): 0.13 nM; EC50 ([2]; mKOR EC50 (nM), R1.G1 cells): 0.08 nM; Emax [2, 8]: 101% |
| CC(C)C[C@@H](NC(=O)[C@@H](Cc1ccccc1)NC(=O)[C@H](N)Cc1ccccc1)C(=O)N[C@H](CCCN)C(=O)NCCCC[C@H](NC(=O)[C@H](N)CCCN)C(=O)N1CCNCC1 [Compound 44] | 93% | – | – | EC50 ([1]; read-out: hKOR EC50): 0.25 nM; EC50 [2, 9]: 1.3 nM; Emax [2, 6]: 91% |
| CC(C)C[C@@H](NC(=O)[C@@H](Cc1ccccc1)NC(=O)[C@H](N)Cc1ccccc1)C(=O)N[C@H](CCCN)C(=O)NCCCC[C@@H](NC(=O)[C@H](N)CCCN)C(=O)O [Compound 45] | 96% | – | – | EC50 ([1]; read-out: hKOR EC50): 0.28 nM; EC50 [2, 9]: 0.05 nM; Emax [2, 6]: 96% |
| CC(C)C[C@@H](NC(=O)[C@@H](Cc1ccccc1)NC(=O)[C@H](N)Cc1ccccc1)C(=O)N[C@H](CCCN)C(=O)N1CCOC(C(=O)O)C1 (stereo partly drawn) [Compound 53, D-Phe-D-Phe-D-Leu-D-Orn-[R/S-2-carboxymorpholine]-OH] | – | 100% | 100% | EC50 [3]: ≥ 1000 nM |
